Where a SMILES comes first, the peptide text is derived from it. Bridges are numbered along the chain shown (N, C = ends). [ ]: non-standard residue; d: D form. The star is where a group is joined. hPhe(3-Cl-4-CF3) = N[C@@H](CCc1ccc(C(F)(F)F)c(Cl)c1)C(=O)O; NPrPhe(4-CF3) = CCCN[C@@H](Cc1ccc(C(F)(F)F)cc1)C(=O)O; NMeGly(cPent) = CN[C@H](C(=O)O)C1CCCC1; Pro(4,4-F2) = O=C(O)[C@@H]1CC(F)(F)CN1; Pro(4,4-Me2) = CC1(C)CN[C@H](C(=O)O)C1; Pro(4S-Me) = C[C@@H]1CN[C@H](C(=O)O)C1; Hyp = O=C(O)[C@@H]1C[C@@H](O)CN1; NMeD = CN[C@@H](CC(=O)O)C(=O)O; NMeL = CN[C@@H](CC(C)C)C(=O)O; Morpholide = C1CN(*)CCO1; NMeA = CN[C@@H](C)C(=O)O; Ac5c = NC1(C(=O)O)CCCC1; Aze = O=C(O)[C@@H]1CCN1; Ac4c = NC1(C(=O)O)CCC1; NEtG = CCNCC(=O)O; Sar = CNCC(=O)O
Key:
[1] = target: GDP-bound NRAS wild-type protein (Homo sapiens, UniProt P01111); test: Binding to NRAS by surface plasmon resonance (SPR), Single Cycle Kinetics; conditions: SPR, GDP-bound NRAS wild-type protein vs GDP-bound KRAS wild-type protein
[2] = target: GDP-bound KRAS wild-type protein (Homo sapiens, UniProt P01116); test: Binding to KRAS by surface plasmon resonance (SPR), Single Cycle Kinetics; conditions: SPR Single Cycle Kinetics, GDP-bound KRAS wild-type protein, 1:1 binding model; read-out: KRAS KD
[3] = target: GDP-bound HRAS wild-type protein (Homo sapiens, UniProt P01112); test: Binding to HRAS by surface plasmon resonance (SPR), Single Cycle Kinetics; conditions: SPR, GDP-bound HRAS wild-type protein vs GDP-bound KRAS wild-type protein
Chain of GDP-bound HRAS wild-type protein (P01112 whole entry): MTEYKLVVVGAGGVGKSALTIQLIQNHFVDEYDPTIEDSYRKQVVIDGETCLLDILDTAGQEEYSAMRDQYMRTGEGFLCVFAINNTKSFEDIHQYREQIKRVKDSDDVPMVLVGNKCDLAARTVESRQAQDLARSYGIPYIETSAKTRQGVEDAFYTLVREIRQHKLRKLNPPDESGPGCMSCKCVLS

Chain of GDP-bound NRAS wild-type protein (P01111 whole entry): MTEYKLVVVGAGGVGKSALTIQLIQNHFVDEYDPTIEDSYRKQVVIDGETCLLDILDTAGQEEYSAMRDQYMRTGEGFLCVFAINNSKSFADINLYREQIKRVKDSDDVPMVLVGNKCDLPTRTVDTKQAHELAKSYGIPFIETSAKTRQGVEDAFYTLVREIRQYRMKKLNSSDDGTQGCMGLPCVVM
Chain of GDP-bound KRAS wild-type protein (P01116 whole entry): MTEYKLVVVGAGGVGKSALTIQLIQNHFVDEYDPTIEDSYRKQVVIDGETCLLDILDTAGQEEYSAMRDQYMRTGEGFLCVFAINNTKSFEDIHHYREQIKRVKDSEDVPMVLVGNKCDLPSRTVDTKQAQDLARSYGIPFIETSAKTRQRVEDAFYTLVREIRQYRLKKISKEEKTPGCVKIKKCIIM

| Kd [2] [nM] | Structure (SMILES) | NRAS/KRAS (ratio of KD value with respect to NRAS to KD value with respect to KRAS) [1] | HRAS/KRAS (ratio of KD value with respect to HRAS to KD value with respect to KRAS) [3] |
| --- | --- | --- | --- |
| 0.037 | CCCN1C(=O)[C@@H]2CCN2C(=O)CN(C)C(=O)[C@H]([C@@H](C)CC)NC(=O)[C@H](CC(C)C)N(C)C(=O)C[C@@H](C(=O)N(C)C)N(C)C(=O)[C@H](C2CCCC2)N(C)C(=O)C2(CCCC2)NC(=O)[C@@H]2CC(F)(F)CN2C(=O)[C@H](CCc2ccc(C(F)(F)F)c(Cl)c2)NC(=O)CN(C)C(=O)[C@@H]1Cc1ccc(C(F)(F)F)cc1 [PP0442] ([NMeL]I[Sar][Aze][NPrPhe(4-CF3)][Sar][hPhe(3-Cl-4-CF3)][Pro(4,4-F2)][Ac5c][NMeGly(cPent)][NMeD]-NMe2; lactam N-11) | C (A compound having a KD ratio of 0.1 or more and less than 3 is denoted as C) | C (A compound having a KD ratio of 0.1 or more and less than 3 is denoted as C) |
| 0.027 | CCCN1C(=O)[C@@H]2CCN2C(=O)CN(C)C(=O)[C@H]([C@@H](C)CC)NC(=O)[C@H](CC(C)C)N(C)C(=O)C[C@@H](C(=O)N(C)C)N(C)C(=O)[C@H](C2CCCC2)N(C)C(=O)C2(CCC2)NC(=O)[C@@H]2CC(F)(F)CN2C(=O)[C@H](CCc2ccc(C(F)(F)F)c(Cl)c2)NC(=O)CN(C)C(=O)[C@@H]1Cc1ccc(C(F)(F)F)cc1 [PP0443] ([NMeL]I[Sar][Aze][NPrPhe(4-CF3)][Sar][hPhe(3-Cl-4-CF3)][Pro(4,4-F2)][Ac4c][NMeGly(cPent)][NMeD]-NMe2; lactam N-11) | C (A compound having a KD ratio of 0.1 or more and less than 3 is denoted as C) | C (A compound having a KD ratio of 0.1 or more and less than 3 is denoted as C) |
| 0.031 | CCCN1C(=O)[C@@H]2CCN2C(=O)CN(C)C(=O)[C@H]([C@@H](C)CC)NC(=O)[C@H](CC(C)C)N(C)C(=O)C[C@@H](C(=O)N(C)C)N(C)C(=O)[C@H](C2CCCC2)N(C)C(=O)C2(CCCC2)NC(=O)[C@@H]2C[C@@H](OCC)CN2C(=O)[C@H](CCc2ccc(C(F)(F)F)c(Cl)c2)NC(=O)CN(C)C(=O)[C@@H]1Cc1ccc(C(F)(F)F)cc1 [PP0444] ([NMeL]I[Sar][Aze][NPrPhe(4-CF3)][Sar][hPhe(3-Cl-4-CF3)][Hyp](Et)[Ac5c][NMeGly(cPent)][NMeD]-NMe2; lactam N-11) | C (A compound having a KD ratio of 0.1 or more and less than 3 is denoted as C) | C (A compound having a KD ratio of 0.1 or more and less than 3 is denoted as C) |
| 0.025 | CCCN1C(=O)[C@@H]2CCN2C(=O)CN(C)C(=O)[C@H]([C@@H](C)CC)NC(=O)[C@H](CC(C)C)N(C)C(=O)C[C@@H](C(=O)N(C)C)N(C)C(=O)[C@H](C2CCCC2)N(C)C(=O)C2(CCC2)NC(=O)[C@@H]2C[C@@H](OCC)CN2C(=O)[C@H](CCc2ccc(C(F)(F)F)c(Cl)c2)NC(=O)CN(C)C(=O)[C@@H]1Cc1ccc(C(F)(F)F)cc1 [PP0445] ([NMeL]I[Sar][Aze][NPrPhe(4-CF3)][Sar][hPhe(3-Cl-4-CF3)][Hyp](Et)[Ac4c][NMeGly(cPent)][NMeD]-NMe2; lactam N-11) | C (A compound having a KD ratio of 0.1 or more and less than 3 is denoted as C) | C (A compound having a KD ratio of 0.1 or more and less than 3 is denoted as C) |
| 0.1 | CCCN1C(=O)CN(C)C(=O)CN(C)C(=O)[C@H]([C@@H](C)CC)NC(=O)[C@H](CC(C)C)N(C)C(=O)C[C@@H](C(=O)N2CCOCC2)N(C)C(=O)[C@H](C2CCCC2)N(C)C(=O)C2(CCCC2)NC(=O)[C@@H]2CC(C)(C)CN2C(=O)[C@H](CCc2ccc(C(F)(F)F)c(Cl)c2)NC(=O)CN(C)C(=O)[C@@H]1Cc1ccc(C(F)(F)F)cc1 [PP0446] ([NMeL]I[Sar][Sar][NPrPhe(4-CF3)][Sar][hPhe(3-Cl-4-CF3)][Pro(4,4-Me2)][Ac5c][NMeGly(cPent)][NMeD]-Morpholide; lactam N-11) | B (a compound having 3 or more and less than 10 is denoted as B) | C (A compound having a KD ratio of 0.1 or more and less than 3 is denoted as C) |
| 0.18 | CCCN1C(=O)CN(C)C(=O)CN(C)C(=O)[C@H]([C@@H](C)CC)NC(=O)[C@H](CC(C)C)N(C)C(=O)C[C@@H](C(=O)N2CCOCC2)N(C)C(=O)[C@H](C2CCCC2)N(C)C(=O)C2(CCCC2)NC(=O)[C@@H]2C[C@H](C)CN2C(=O)[C@H](CCc2ccc(C(F)(F)F)c(Cl)c2)NC(=O)CN(C)C(=O)[C@@H]1Cc1ccc(C(F)(F)F)cc1 [PP0447] ([NMeL]I[Sar][Sar][NPrPhe(4-CF3)][Sar][hPhe(3-Cl-4-CF3)][Pro(4S-Me)][Ac5c][NMeGly(cPent)][NMeD]-Morpholide; lactam N-11) | B (a compound having 3 or more and less than 10 is denoted as B) | C (A compound having a KD ratio of 0.1 or more and less than 3 is denoted as C) |
| 0.15 | CCCN1C(=O)CN(C)C(=O)CNC(=O)[C@H]([C@@H](C)CC)NC(=O)[C@H](CC(C)C)N(C)C(=O)C[C@@H](C(=O)N2CCOCC2)N(C)C(=O)[C@H](C2CCCC2)N(C)C(=O)C2(CCCC2)NC(=O)[C@@H]2CC(C)(C)CN2C(=O)[C@H](CCc2ccc(C(F)(F)F)c(Cl)c2)NC(=O)CN(C)C(=O)[C@@H]1Cc1ccc(C(F)(F)F)cc1 [PP0448] ([NMeL]IG[Sar][NPrPhe(4-CF3)][Sar][hPhe(3-Cl-4-CF3)][Pro(4,4-Me2)][Ac5c][NMeGly(cPent)][NMeD]-Morpholide; lactam N-11) | B (a compound having 3 or more and less than 10 is denoted as B) | C (A compound having a KD ratio of 0.1 or more and less than 3 is denoted as C) |
| 0.35 | CCCN1C(=O)CN(C)C(=O)CNC(=O)[C@H]([C@@H](C)CC)NC(=O)[C@H](CC(C)C)N(C)C(=O)C[C@@H](C(=O)N2CCOCC2)N(C)C(=O)[C@H](C2CCCC2)N(C)C(=O)C2(CCCC2)NC(=O)[C@@H]2C[C@H](C)CN2C(=O)[C@H](CCc2ccc(C(F)(F)F)c(Cl)c2)NC(=O)CN(C)C(=O)[C@@H]1Cc1ccc(C(F)(F)F)cc1 [PP0449] ([NMeL]IG[Sar][NPrPhe(4-CF3)][Sar][hPhe(3-Cl-4-CF3)][Pro(4S-Me)][Ac5c][NMeGly(cPent)][NMeD]-Morpholide; lactam N-11) | C (A compound having a KD ratio of 0.1 or more and less than 3 is denoted as C) | C (A compound having a KD ratio of 0.1 or more and less than 3 is denoted as C) |
| 0.38 | CCCN1C(=O)CN(C)C(=O)CN(CC)C(=O)[C@H]([C@@H](C)CC)NC(=O)[C@H](CC(C)C)N(C)C(=O)C[C@@H](C(=O)N2CCOCC2)N(C)C(=O)[C@H](C2CCCC2)N(C)C(=O)C2(CCCC2)NC(=O)[C@@H]2CC(C)(C)CN2C(=O)[C@H](CCc2ccc(C(F)(F)F)c(Cl)c2)NC(=O)CN(C)C(=O)[C@@H]1Cc1ccc(C(F)(F)F)cc1 [PP0450] ([NMeL]I[NEtG][Sar][NPrPhe(4-CF3)][Sar][hPhe(3-Cl-4-CF3)][Pro(4,4-Me2)][Ac5c][NMeGly(cPent)][NMeD]-Morpholide; lactam N-11) | B (a compound having 3 or more and less than 10 is denoted as B) | C (A compound having a KD ratio of 0.1 or more and less than 3 is denoted as C) |
| 0.073 | CCCN1C(=O)[C@@H]2CCN2C(=O)[C@H](C)N(C)C(=O)[C@H]([C@@H](C)CC)NC(=O)[C@H](CC(C)C)N(C)C(=O)C[C@@H](C(=O)N2CCOCC2)N(C)C(=O)[C@H](C2CCCC2)N(C)C(=O)C2(CCCC2)NC(=O)[C@@H]2CC(C)(C)CN2C(=O)[C@H](CCc2ccc(C(F)(F)F)c(Cl)c2)NC(=O)CN(C)C(=O)[C@@H]1Cc1ccc(C(F)(F)F)cc1 [PP0454] ([NMeL]I[NMeA][Aze][NPrPhe(4-CF3)][Sar][hPhe(3-Cl-4-CF3)][Pro(4,4-Me2)][Ac5c][NMeGly(cPent)][NMeD]-Morpholide; lactam N-11) | C (A compound having a KD ratio of 0.1 or more and less than 3 is denoted as C) | C (A compound having a KD ratio of 0.1 or more and less than 3 is denoted as C) |
| 0.07 | CCCN1C(=O)[C@@H]2CCN2C(=O)CN(C)C(=O)[C@H]([C@@H](C)CC)NC(=O)[C@H](CC(C)C)N(C)C(=O)C[C@@H](C(=O)N2CCOCC2)N(C)C(=O)[C@H](C2CCCC2)N(C)C(=O)C2(CCCC2)NC(=O)[C@@H]2CC(C)(C)CN2C(=O)[C@H](CCc2ccc(C(F)(F)F)c(Cl)c2)NC(=O)CN(C)C(=O)[C@@H]1Cc1ccc(C(F)(F)F)cc1 [PP0456] ([NMeL]I[Sar][Aze][NPrPhe(4-CF3)][Sar][hPhe(3-Cl-4-CF3)][Pro(4,4-Me2)][Ac5c][NMeGly(cPent)][NMeD]-Morpholide; lactam N-11) | C (A compound having a KD ratio of 0.1 or more and less than 3 is denoted as C) | C (A compound having a KD ratio of 0.1 or more and less than 3 is denoted as C) |
| 0.083 | CCCN1C(=O)[C@@H]2CCN2C(=O)CN(C)C(=O)[C@H]([C@@H](C)CC)NC(=O)[C@H](CC(C)C)N(C)C(=O)C[C@@H](C(=O)N2CCOCC2)N(C)C(=O)[C@H](C2CCCC2)N(C)C(=O)C2(CCCC2)NC(=O)[C@@H]2C[C@H](C)CN2C(=O)[C@H](CCc2ccc(C(F)(F)F)c(Cl)c2)NC(=O)CN(C)C(=O)[C@@H]1Cc1ccc(C(F)(F)F)cc1 [PP0457] ([NMeL]I[Sar][Aze][NPrPhe(4-CF3)][Sar][hPhe(3-Cl-4-CF3)][Pro(4S-Me)][Ac5c][NMeGly(cPent)][NMeD]-Morpholide; lactam N-11) | C (A compound having a KD ratio of 0.1 or more and less than 3 is denoted as C) | B (a compound having 3 or more and less than 10 is denoted as B) |

From patent US20240158446A1, “CYCLIC COMPOUND HAVING SELECTIVE INHIBITORY ACTION ON KRAS OVER HRAS AND NRAS” (CHUGAI SEIYAKU KABUSHIKI KAISHA, priority 2021, published 2024)
